US8431715B2, “Thiazole compound (as PPARδ) ligand and pharmaceutical, cosmetic and health food comprised thereof” (Seoul National University Industry Foundation, priority 2007, dated 2013)

What was measured:
PPARα = target: T1, PPARα (Homo sapiens, UniProt Q07869); test: Transfection assay (luciferase reporter) in CV-1 cells, PPARα; type: cell-based; conditions: 24 hours treatment
T1 construct: Full length PPARs plasmid DNA, reporter DNA confirming PPARs activity owing to its luciferase activity; expressed in transfected cells; host or cells: CV-1 cells
T1 sequence (Q07869 1-468): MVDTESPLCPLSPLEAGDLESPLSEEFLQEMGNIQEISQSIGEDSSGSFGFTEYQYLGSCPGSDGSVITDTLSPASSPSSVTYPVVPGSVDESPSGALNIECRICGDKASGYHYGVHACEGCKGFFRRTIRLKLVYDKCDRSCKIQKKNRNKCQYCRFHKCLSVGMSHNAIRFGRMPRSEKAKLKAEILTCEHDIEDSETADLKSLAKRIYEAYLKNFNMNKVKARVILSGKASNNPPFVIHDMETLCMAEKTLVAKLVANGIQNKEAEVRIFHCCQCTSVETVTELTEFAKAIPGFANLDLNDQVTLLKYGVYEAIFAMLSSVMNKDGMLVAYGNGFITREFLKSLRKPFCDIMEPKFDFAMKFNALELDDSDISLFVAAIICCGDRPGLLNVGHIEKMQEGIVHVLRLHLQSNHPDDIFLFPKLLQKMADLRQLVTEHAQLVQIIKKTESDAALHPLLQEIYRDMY
Protocol: (§1) The PPARδ activities of the R-form compound represented by formula 1 of the present invention and the S-form compound represented by formula 2 were measured by transfection assay. In addition, the selectivity to PPAR subtypes, PPARα and PPARγ, was examined. Cytotoxicity was tested by MTT assay and in vivo activity and toxicity was investigated by animal experiment using mice.
(§2) CV-1 cells were used in this assay. The cells were inoculated in a 96-well plate containing DMEM supplemented with 10% FBS, DBS (delipidated) and 1% penicillin/streptomycin and cultured in a 37 °C, 5% CO2 incubator. The experiment was performed according to the steps of inoculation, transfection, sample treatment and confirmation. Particularly, CV-1 cells were inoculated in a 96 well-plate (5000 cells/well), followed by transfection 24 hours later. Full length PPARs plasmid DNA, reporter DNA confirming PPARs activity owing to its luciferase activity, β-galactosidase DNA providing information on transfection efficiency, and transfection reagent were used for the transfection. The compounds of formula 1 and formula 2 were dissolved in dimethylsulfoxide (DMSO), which were treated to the cells via media at different concentrations. […] Luciferase activity and β-galactosidaseactivity were measured with Luminometer and a microplate reader. […] A graph was made with those values and EC50 was calculated.

PPARγ = target: T2, PPARγ (Homo sapiens, UniProt P37231); test: Transfection assay (luciferase reporter) in CV-1 cells, PPARγ; type: cell-based; conditions: 24 hours treatment
T2 construct: Full length PPARs plasmid DNA, reporter DNA confirming PPARs activity owing to its luciferase activity; expressed in transfected cells; host or cells: CV-1 cells
T2 sequence (P37231 1-505): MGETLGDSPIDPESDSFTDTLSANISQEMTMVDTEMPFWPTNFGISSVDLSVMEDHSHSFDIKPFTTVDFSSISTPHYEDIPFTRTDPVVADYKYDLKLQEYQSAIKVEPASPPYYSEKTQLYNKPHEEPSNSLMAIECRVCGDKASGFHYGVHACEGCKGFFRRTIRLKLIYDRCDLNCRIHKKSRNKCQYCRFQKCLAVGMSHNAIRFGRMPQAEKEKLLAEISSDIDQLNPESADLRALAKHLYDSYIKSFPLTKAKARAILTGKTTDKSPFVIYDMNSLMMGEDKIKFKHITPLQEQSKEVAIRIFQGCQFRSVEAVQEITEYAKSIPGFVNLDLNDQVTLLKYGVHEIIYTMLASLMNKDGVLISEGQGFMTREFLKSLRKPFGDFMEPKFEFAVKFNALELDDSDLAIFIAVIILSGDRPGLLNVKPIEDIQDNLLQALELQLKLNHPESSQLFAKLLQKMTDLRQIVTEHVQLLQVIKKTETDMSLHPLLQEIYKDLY
Protocol: as §1, §2

C57BL/6 mice [1] = test: Obesity inhibitory effect, high-fat feed; type: in vivo; conditions: 10 mg/Kg/day oral, 35% fat feed for 35 days; vehicle 58.9%
Protocol: An animal test using mice was performed to confirm the in vivo effect of the compound of the present invention. C57BL/6 (SLC Co.) mice at 14 weeks were used. To induce obesity, feeds containing 35% fat were given.

ApoE−/− mouse = test: Arteriosclerosis inhibiting effect, Sudan IV plaque staining; type: in vivo; conditions: 2 mg/kg/day oral, high fat high cholesterol feeds, 28 days
Protocol: In vivo animal test using ApoE−/− mouse, which is an animal model for arteriosclerosis, was performed to confirm the arteriosclerosis inhibiting effect of the compound of the present invention. The animals were orally administered with 2 mg/kg/day of the compound of formula 1 of the present invention while feeding with high fat, high cholesterol feeds (20% fat, 1.25% cholesterol; AIN-93G diet). 28 days later, plaque staining was performed over the whole artery using Sudan IV to investigate the arteriosclerosis inhibiting effect of the compound by comparing the results between experimental and control groups. As a result, arteriosclerosis was 30% inhibited in ApoE−/− mouse treated with the compound of formula 1 of the present invention, compared with the control.

mice = test: Muscle endurance test, treatment during pregnancy and/or lactation, treadmill; type: in vivo
Protocol: An animal test was performed to confirm muscle endurance strengthening and muscle function enhancing effect of the compound of the present invention. Most muscles are generated in the developmental stage. Thus, the compound of formula 1 (10 mg/Kg/day) were orally administered to pregnant mice in the period of either pregnancy or lactation or both pregnancy and lactation. […] Muscles were observed after removing skin. As a result, muscles of the treatment group were red, unlike the controlled one. ATPase staining and immunostaining were performed. As a result, type I muscle fiber was increased in the group treated with the compound of formula 1. The effect of the changes of the muscle fiber on the enhancement of muscle endurance and muscle function was investigated by using treadmill test. As a result, running time was much extended in the group treated with the compound of formula 1.

C57BL/6 mice [2] = test: Morris water maze test, LPS brain disease animal model; type: in vivo
Protocol: The therapeutic effect of the compound of the present invention on dementia and Parkinson's disease based on the memory improving effect thereof was investigated using brain disease animal model (C57BL/6 mice at 10 weeks). First, LPS was injected into the mouse brain to construct brain disease animal model. The mice were divided into four groups according to the administration and exercise. The exercise was performed with treadmill at the speed of 2 meter/min for the first 5 minutes, at 5 meter/min for 5 minutes, at 8 meter/min for 5 minutes and at 20 meter/min for the last 5 minutes. At the finish, Morris water maze test was performed. As a result, the therapeutic effect of the compound of formula 1 of the present invention on dementia and Parkinson's disease via memory enhancement by the compound and exercise was confirmed in the brain disease animal model.

[3] = 10 mg/Kg/day oral to pregnant mice
[4] = 10 mg/Kg/day oral to pregnant mice, pregnancy
[5] = 10 mg/Kg/day oral, Pregnancy + lactation

## Cc1cc(S[C@H](Cc2ccccc2)c2sc(-c3ccc(C(F)(F)F)cc3)nc2C)ccc1OCC(=O)O (racemic) [formula 1]
PPARα
  EC50 PPARα: ia
PPARγ
  EC50 PPARγ: ia
C57BL/6 mice [1]
  weight increase: 23.1%
ApoE−/− mouse
  arteriosclerosis inhibition compared with the control: 30%
mice; [3]
  muscle colour after removing skin: red
  weight gain and growth rate of fetuses versus control: not much different
mice; [4]
  Increasing rate (treatment group/control group), length: 2.4 times
  Increasing rate (treatment group/control group), time: 2.3 times
mice; [5]
  Increasing rate (treatment group/control group), length: 3.0 times
  Increasing rate (treatment group/control group), time: 2.9 times
mice; 10 mg/Kg/day oral, lactation
  Increasing rate (treatment group/control group), length: 2.2 times
  Increasing rate (treatment group/control group), time: 2.1 times
mice; ATPase staining and immunostaining
  type I muscle fiber: increased
mice; treadmill test
  running time: much extended
C57BL/6 mice [2]; Exercise (O), control 29 seconds
  Results of water maze test: 13 s
C57BL/6 mice [2]; Exercise (X), control 36 seconds
  Results of water maze test: 25 s
